Measurements published in patent US4292317A, “1,4-Dihydro-quinoline-3-carboxylic acid derivatives, process for their preparation and compositions containing them” (Laboratorie Roger Bellon, priority 1977, dated 1981).
Converted amounts (≈) assume the structure as drawn. Where two headings read alike, the source gives them in different places.

Key:
Type in all cases: cell-based
Esch. coli 54.127 O.M.S. = assay: M.I.C. in vitro, nutrient agar dilution; settings: Escherichia coli, 18 h, read-out: M.I.C.
Method: (§1) After sterilisation at 120° C., the pH was 6.8.
(§2) The minimum inhibitory concentrations (M.I.C.) were determined by dilution of the test compounds in this mixture, the concentration ranging from 0.05 to 100 μg/cm^3 in a geometric progression with a factor of 2.
(§3) The inoculation of the dishes was carried out by means of a multiple inoculator with 10^-3 dilutions of 18 hour old broth cultures.
(§4) The dishes were placed in an oven at 37° C. and the readings were taken afer an incubation time of 18 hours. The M.I.C. was taken as the lowest concentration which inhibited a culture.

Klebs. pneum. 10.031 = assay: M.I.C. in vitro, nutrient agar dilution; settings: 18 h, read-out: M.I.C.
Method: as §1, §2, §3, §4

Bord. bronchis. 4.617 = assay: M.I.C. in vitro, nutrient agar dilution; settings: 18 h, read-out: M.I.C.
Method: as §1, §2, §3, §4

Strepto A 561 = assay: M.I.C. in vitro, nutrient agar dilution; settings: 18 h
Method: as §1, §2, §3, §4

Ps. aeruginosa A.22 = assay: M.I.C. in vitro, nutrient agar dilution; settings: Pseudomonas aeruginosa, 18 h, read-out: M.I.C.
Method: as §1, §2, §3, §4

B. subtilis = assay: M.I.C. in vitro, nutrient agar dilution; settings: Bacillus subtilis, 18 h, read-out: M.I.C.
Method: as §1, §2, §3, §4

Serratia = assay: M.I.C. in vitro, nutrient agar dilution; settings: 18 h, read-out: M.I.C.
Method: as §1, §2, §3, §4

Pr. morganii A.236 = assay: M.I.C. in vitro, nutrient agar dilution; settings: Morganella morganii, 18 h, read-out: M.I.C.
Method: as §1, §2, §3, §4

Providentia 0223 = assay: M.I.C. in vitro, nutrient agar dilution; settings: 18 h, read-out: M.I.C.
Method: as §1, §2, §3, §4

Esch. coli 95 I.S.M. = assay: M.I.C. in vitro, nutrient agar dilution; settings: Escherichia coli, 18 h, read-out: M.I.C.
Method: as §1, §2, §3, §4

Pr. mirabilis Nig = assay: M.I.C. in vitro, nutrient agar dilution; settings: Proteus mirabilis, 18 h, read-out: M.I.C.
Method: as §1, §2, §3, §4

Staph. 209 P = assay: M.I.C. in vitro, nutrient agar dilution; settings: 18 h, read-out: M.I.C.
Method: as §1, §2, §3, §4

Esch. coli 111 B4 = assay: M.I.C. in vitro, nutrient agar dilution; settings: Escherichia coli, 18 h
Method: as §1, §2, §3, §4

S. enteritidis Danysz = assay: M.I.C. in vitro, nutrient agar dilution; settings: Salmonella enterica, 18 h, read-out: M.I.C.
Method: as §1, §2, §3, §4

Pr. vulgaris 12-53 = assay: M.I.C. in vitro, nutrient agar dilution; settings: Proteus vulgaris, 1253, 18 h, read-out: M.I.C.
Method: as §1, §2, §3, §4

Sh. sonnei I.P.S. = assay: M.I.C. in vitro, nutrient agar dilution; settings: Shigella sonnei, 18 h, read-out: M.I.C.
Method: as §1, §2, §3, §4

Arizona 6.211 = assay: M.I.C. in vitro, nutrient agar dilution; settings: 18 h, read-out: M.I.C.
Method: as §1, §2, §3, §4

Ps. aeruginosa 72.345 = assay: M.I.C. in vitro, nutrient agar dilution; settings: Pseudomonas aeruginosa, 18 h, read-out: M.I.C.
Method: as §1, §2, §3, §4

Strepto D.M. 19 = assay: M.I.C. in vitro, nutrient agar dilution; settings: 18 h, read-out: M.I.C.
Method: as §1, §2, §3, §4

Staph. 9.144 = assay: M.I.C. in vitro, nutrient agar dilution; settings: 18 h, read-out: M.I.C.
Method: as §1, §2, §3, §4

S. oranienburg 1066 = assay: M.I.C. in vitro, nutrient agar dilution; settings: Salmonella enterica, 18 h, read-out: M.I.C.
Method: as §1, §2, §3, §4

Salm. typhi 0901 = assay: microbe, parasite or virus in culture; settings: Salmonella enterica, 18 h
Method: as §1, §2, §3, §4

[1] = Table III, Esch. coli 54.127 O.M.S.
[2] = Table III, Klebs. pneum. 10.031
[3] = Table III, Bord. bronchis. 4.617
[4] = Table III, Esch. coli 95 I.S.M.
[5] = Table III, S. enteritidis Danysz
[6] = Table III, Pd. aeruginosa 72.345

CCn1cc(C(=O)O)c(=O)c2ccc(N3CCN(C)CC3)cc21 [Example T1, 1-ethyl-7-(4-methylpiperazinyl)-4-oxo-1,4-dihydro-quinoline-3-carboxylic acid, reference compound]
MIC (Esch. coli 54.127 O.M.S.; Table 2, Esch. coli 54.127 O.M.S. (Gram negative)): 1.6 mg/L (≈ 5.07 µM)
MIC (Klebs. pneum. 10.031; Table 2, Klebs. pneum. 10.031 (Gram negative)): 0.8 mg/L (≈ 2.54 µM)
MIC (Bord. bronchis. 4.617; Table 2, Bord. bronchis. 4.617 (Gram negative)): 25 mg/L (≈ 79.3 µM)
MIC (Strepto A 561; Table 2, Strepto A 561 (Gram positive)): 50 mg/L (≈ 159 µM)
MIC (Ps. aeruginosa A.22; Table 2, Ps. aeruginosa A.22 (Gram negative)): 12.5 mg/L (≈ 39.6 µM)
MIC (B. subtilis; Table 2, B. subtilis (Gram positive)): 1.6 mg/L (≈ 5.07 µM)
MIC (Serratia; Table 2, Berratia (Gram negative)): 12.5 mg/L (≈ 39.6 µM)
MIC (Pr. morganii A.236; Table 2, Pr. morganii A.236 (Gram negative)): 0.8 mg/L (≈ 2.54 µM)
MIC (Providentia 0223; Table 2, Providentia 0223 (Gram negative)): 100 mg/L (≈ 317 µM)
MIC (Esch. coli 95 I.S.M.; Table 2, Esch. coli 95 I.S.M. (Gram negative)): 0.8 mg/L (≈ 2.54 µM)
MIC (Pr. mirabilis Nig; Table 2, Pr. mirabilis Nig (Gram negative)): 3.1 mg/L (≈ 9.83 µM)
MIC (Staph. 209 P; Table 2, Staph. 209 P (Gram positive)): 3.1 mg/L (≈ 9.83 µM)
MIC (Esch. coli 111 B4; Table 2, Esch. coli 111 B4 (Gram negative)): 1.6 mg/L (≈ 5.07 µM)
MIC (S. enteritidis Danysz; Table 2, S. enteritidis Danysz (Gram negative)): 3.1 mg/L (≈ 9.83 µM)
MIC (Pr. vulgaris 12-53; Table 2, Pr. vulgaris 12-53 (Gram negative)): 3.1 mg/L (≈ 9.83 µM)
MIC (Sh. sonnei I.P.S.; Table 2, Sh. sonnei I.P.S. (Gram negative)): 1.6 mg/L (≈ 5.07 µM)
MIC (Arizona 6.211; Table 2, Arizona 6.211 (Gram negative)): 1.6 mg/L (≈ 5.07 µM)
MIC (Ps. aeruginosa 72.345; Table 2, Ps. aeruginosa 72.345 (Gram negative)): 12.5 mg/L (≈ 39.6 µM)
MIC (Strepto D.M. 19; Table 2, Strepto D.M. 19 (Gram positive)): 50 mg/L (≈ 159 µM)
MIC (Staph. 9.144; Table 2, Staph. 9.144 (Gram positive)): 6.2 mg/L (≈ 19.7 µM)
MIC (S. oranienburg 1066; Table 2, S. oranienburg 1066 (Gram negative)): > 100 mg/L
MIC (Salm. typhi 0901; Table 2, Salm. typhi 0901 (Gram negative)): 3.1 mg/L (≈ 9.83 µM)

C=CCn1cc(C(=O)O)c(=O)c2cc(F)c(N3CCN(C)CC3)cc21 [Example 34, 1-Allyl-6-fluoro-7-(4-methylpiperazinyl)-4-oxo-1,4-dihydro-quinoline-3-carboxylic acid]
MIC (Esch. coli 54.127 O.M.S.; [1]): 0.4 mg/L (≈ 1.16 µM)
MIC (Klebs. pneum. 10.031; [2]): 0.1 mg/L (≈ 0.29 µM)
MIC (Bord. bronchis. 4.617; [3]): 0.2 mg/L (≈ 0.579 µM)
MIC (Strepto A 561; Table III, Strepto A 561): 50 mg/L (≈ 145 µM)
MIC (Ps. aeruginosa A.22; Table III, Ps. aeruginosa A.22): 3.1 mg/L (≈ 8.98 µM)
MIC (B. subtilis; Table III, B. Subtilis): 0.4 mg/L (≈ 1.16 µM)
MIC (Serratia; Table III): 0.05 to 0.4 mg/L (≈ 0.145 to 1.16 µM)
MIC (Pr. morganii A.236; Table III, Pr. morganii A. 236): 0.05 to 0.2 mg/L (≈ 0.145 to 0.579 µM)
MIC (Providentia 0223; Table III, Providentia 0223): 12.5 mg/L (≈ 36.2 µM)
MIC (Esch. coli 95 I.S.M.; [4]): 0.4 mg/L (≈ 1.16 µM)
MIC (Pr. mirabilis Nig; Table III, Pr. mirabilis Nig): 0.8 to 1.6 mg/L (≈ 2.32 to 4.63 µM)
MIC (Staph. 209 P; Table III, Staph. 209 P): 0.8 mg/L (≈ 2.32 µM)
MIC (Esch. coli 111 B4; Table III, Esch. coli 111 B4): 0.4 mg/L (≈ 1.16 µM)
MIC (S. enteritidis Danysz; [5]): 0.4 to 0.8 mg/L (≈ 1.16 to 2.32 µM)
MIC (Pr. vulgaris 12-53; Table III, Pr. vulgaris 12-53): 0.2 mg/L (≈ 0.579 µM)
MIC (Sh. sonnei I.P.S.; Table III, Sh. sonnei I.P.S.): 0.2 mg/L (≈ 0.579 µM)
MIC (Arizona 6.211; Table III, Arizona 6.211): 0.4 mg/L (≈ 1.16 µM)
MIC (Ps. aeruginosa 72.345; [6]): 3.1 mg/L (≈ 8.98 µM)
MIC (Strepto D.M. 19; Table III, Strepto D.M. 19): 6.2 to 12.5 mg/L (≈ 18 to 36.2 µM)
MIC (Staph. 9.144; Table III, Staph. 9.144): 1.6 mg/L (≈ 4.63 µM)
MIC (S. oranienburg 1066; Table III, S. oranienburg 1066): 12.5 mg/L (≈ 36.2 µM)
MIC (Salm. typhi 0901; Table III, Salm. typhi 0901): 0.1 mg/L (≈ 0.29 µM)

Cn1cc(C(=O)O)c(=O)c2cc(F)c(N3CCNCC3)cc21 [Example 32, 6-fluoro-1-methyl-4-oxo-7-piperazinyl-1,4-dihydro-quinoline-3-carboxylic acid]
MIC (Esch. coli 54.127 O.M.S.; [1]): 0.2 mg/L (≈ 0.655 µM)
MIC (Klebs. pneum. 10.031; [2]): 0.1 mg/L (≈ 0.328 µM)
MIC (Bord. bronchis. 4.617; [3]): 6.25 mg/L (≈ 20.5 µM)
MIC (Strepto A 561; Table III, Strepto A 561): 6.2 to 12.5 mg/L (≈ 20.3 to 40.9 µM)
MIC (Ps. aeruginosa A.22; Table III, Ps. aeruginosa A.22): 0.8 to 3.12 mg/L (≈ 2.62 to 10.2 µM)
MIC (B. subtilis; Table III, B. Subtilis): 0.4 mg/L (≈ 1.31 µM)
MIC (Serratia; Table III): 0.2 mg/L (≈ 0.655 µM)
MIC (Pr. morganii A.236; Table III, Pr. morganii A. 236): 0.2 mg/L (≈ 0.655 µM)
MIC (Providentia 0223; Table III, Providentia 0223): 1.6 mg/L (≈ 5.24 µM)
MIC (Esch. coli 95 I.S.M.; [4]): 0.2 mg/L (≈ 0.655 µM)
MIC (Pr. mirabilis Nig; Table III, Pr. mirabilis Nig): 0.2 mg/L (≈ 0.655 µM)
MIC (Staph. 209 P; Table III, Staph. 209 P): 0.8 mg/L (≈ 2.62 µM)
MIC (Esch. coli 111 B4; Table III, Esch. coli 111 B4): 0.2 mg/L (≈ 0.655 µM)
MIC (S. enteritidis Danysz; [5]): 0.2 mg/L (≈ 0.655 µM)
MIC (Pr. vulgaris 12-53; Table III, Pr. vulgaris 12-53): 0.2 mg/L (≈ 0.655 µM)
MIC (Sh. sonnei I.P.S.; Table III, Sh. sonnei I.P.S.): 0.1 mg/L (≈ 0.328 µM)
MIC (Arizona 6.211; Table III, Arizona 6.211): 0.2 mg/L (≈ 0.655 µM)
MIC (Ps. aeruginosa 72.345; [6]): 0.4 to 3.12 mg/L (≈ 1.31 to 10.2 µM)
MIC (Strepto D.M. 19; Table III, Strepto D.M. 19): 12.5 mg/L (≈ 40.9 µM)
MIC (Staph. 9.144; Table III, Staph. 9.144): 0.8 mg/L (≈ 2.62 µM)
MIC (S. oranienburg 1066; Table III, S. oranienburg 1066): 12.5 mg/L (≈ 40.9 µM)
MIC (Salm. typhi 0901; Table III, Salm. typhi 0901): 0.8 mg/L (≈ 2.62 µM)
